# Experimental data: patent US4288441A, “Nicotinoyl pantetheine derivatives” (priority 1980, dated 1981)
# Read-outs that look alike come from different tables or passages of the source.
# Legend:
# [1] = tested on: serum free fatty acid; assay: Serum levels of free fatty acid in rats after oral administration (Table I); type: in vivo; details: for Serum level of free fatty acid (FFA): oral, n=6, nicotinic acid 20 mg/kg, S-nicotinate 62.2 mg/kg (equimolar)
# Description: (§1) At the time specified in Table I, the rats were killed by pentobarbital (30 mg/kg, i.p.) anesthesia and blood was withdrawn by the carotid. The serum separated from the blood samples was assayed for free fatty acid (according to a variation of the Elphic method) and triglyceride (according to the enzyme method).
# [2] = tested on: serum triglyceride; assay: Serum levels of triglyceride in rats after oral administration (Table I); type: in vivo; details: for Serum level of triglyceride (TG): oral, n=6, nicotinic acid 20 mg/kg, S-nicotinate 62.2 mg/kg (equimolar)
# Description: as §1
# [3] = tested on: serum cholesterol; assay: Serum cholesterol in alcoholic fatty liver rats (Table III); type: in vivo, male Sprague-Dawly rats; details: 0.1 mmole/kg/day for five days, n=6
# Description: (§2) The effects of S-nicotinate were confirmed by an experiment in which alcoholic fatty liver rats were used according to the method described by A. Hosein et al., Biochemical Pharmacology, 24, page 1859, 1975.
# (§3) In this experiment, male Sprague-Dawly rats, age 6 weeks, were treated as follows. The rats received 10 ml of 40% ethanol solution per kg of body weight for 3 days (at 10:00 AM on the day of sacrifice and at 4:00 PM on the other days) by gastric intubation. S-nicotinate was suspended in 0.5 (v/v)% Tween 80 aqueous solution and administered for five days (at 9:00 AM) including the day of sacrifice. After sacrificing the rats (at 1:00 PM), the total cholesterol was measured according to the Bennie Zak method (American Journal of Clinical Pathology, 27, page 583, 1957) and free fatty acid was measured by the method described by K. Itaya et al., Journal of Lipid Research, 6, page 16, 1965.
# [4] = tested on: serum free fatty acids; assay: Serum free fatty acids in alcoholic fatty liver rats (Table III); type: in vivo, male Sprague-Dawly rats; details: 0.1 mmole/kg/day for five days, n=6
# Description: as §2, §3
# [5] = Acute toxicity in mice (Table IV); details: mouse, in vivo
# Description: The acute toxicity test was conducted as follows. STD ddY strain mice, weight male 17.2-20.5 g, female 17.5-19.7 g, were used. The mice were fed on forage and water freely and kept at constant environmental conditions (temperature 23±1° C., relative humidity 55±5%, and 12 hours light) before the test. Samples of S-nicotinate water solutions (0.3 ml/10 g of body weight) were administered to each group (n=10) of mice in order to achieve levels of 5 g/kg and 10 g/kg, respectively.
# [6] = rat, in vivo, po
# Description: (§4) On the other hand, upon oral administration of each compound, i.e., nicotinic acid and S-nicotinate to groups of rats, the plasma nicotinic acid levels in the rats were studied. […] The other experimental conditions were the same as those described above.
# [7] = in vivo; details: rat, po, 62.2 mg/kg
# Description: as §4
# [8] = Plasma nicotinic acid levels in rats after oral administration (Table II)
# Description: as §4
# [9] = cited from earlier work
# [10] = 30 min, * = significant difference from control
# [11] = rats, compared with nicotinic acid
molecule,measurement,setting,value
"CC(C)(CO)C(O)C(=O)NCCC(=O)NCCSC(=O)c1cccnc1 (stereo not shown) [S-nicotinate, 2,4-dihydroxy-N-[2-((2-mercaptoethyl)carbamoyl)ethyl]-3,3-dimethylbutyramide S-nicotinate]",Serum level of free fatty acid (FFA),[1]; [10],0.13±0.01 mEq/1
same,Serum level of free fatty acid (FFA),[1]; 60 min,0.13±0.01 mEq/1
same,Serum level of free fatty acid (FFA),[1]; 90 min,0.15±0.03 mEq/l
same,Serum level of free fatty acid (FFA),[1]; 120 min,0.20±0.04 mEq/l
same,Serum level of free fatty acid (FFA),[1]; 360 min,0.46±0.05 mEq/l
same,"Effect on serum level of free fatty acid, in words",[1]; [11],decreases serum levels of free fatty acid and triglyceride in rats as well as nicotinic acid does
same,Serum level of triglyceride (TG),[2]; [10],43.7 ± 5.7 mg/dL
same,Serum level of triglyceride (TG),[2]; 60 min,22.2 ± 1.1 mg/dL
same,Serum level of triglyceride (TG),[2]; 90 min,25.5 ± 3.3 mg/dL
same,Serum level of triglyceride (TG),[2]; 120 min,29.2 ± 1.6 mg/dL
same,Serum level of triglyceride (TG),[2]; 360 min,33.5 ± 8.0 mg/dL
same,"Effect on serum level of triglyceride, in words",[2]; [11],decreases serum levels of free fatty acid and triglyceride in rats as well as nicotinic acid does
same,Serum cholesterol,[3],79.0 ± 4.23 mg/dL
same,Serum free fatty acids,[4],236±21.33 μEq/l
same,LD50,[5]; iv,1600 mg/kg
same,LD50,[5]; po,> 10000 mg/kg
same,"Plasma nicotinic acid at 120 minutes, in words",[6],essentially disappeared
same,concentration at 0.5 h,[7],5200 ± 300 ng/mL
same,concentration at 1 h,[7],3300 ± 300 ng/mL
same,concentration at 1.5 h,[7],700 ± 400 ng/mL
same,"Activity in maintaining a satisfactory level of free nicotinic acid in the blood, in words","[8]; S-nicotinate itself vs nicotinic acid, inferred from experimental results",has the same activity as nicotinic acid itself
O=C(O)c1cccnc1 [nicotinic acid],Serum level of free fatty acid (FFA),[1]; [10],0.19±0.09 mEq/1
same,Serum level of free fatty acid (FFA),[1]; 60 min,0.12±0.01 mEq/1
same,Serum level of free fatty acid (FFA),[1]; 90 min,0.13±0.02 mEq/l
same,Serum level of free fatty acid (FFA),[1]; 120 min,0.23±0.07 mEq/l
same,Serum level of free fatty acid (FFA),[1]; 360 min,0.49±0.04 mEq/l
same,Serum level of triglyceride (TG),[2]; [10],35.0 ± 2.3 mg/dL
same,Serum level of triglyceride (TG),[2]; 60 min,18.0 ± 0.7 mg/dL
same,Serum level of triglyceride (TG),[2]; 90 min,21.2 ± 2.5 mg/dL
same,Serum level of triglyceride (TG),[2]; 120 min,26.2 ± 1.1 mg/dL
same,Serum level of triglyceride (TG),[2]; 360 min,32.5 ± 3.1 mg/dL
same,Effect on blood lipids,"[9]; cholesterol, triglycerides, phospholipids and free fatty acids in blood, well known","reduces the levels of lipids such as cholesterol, triglycerides, phospholipids and free fatty acids in blood"
same,Side-effects at higher doses,"[9]; clinical treatment, higher doses","flushing of the face, itching and gastrointestinal impediments"
same,"Nicotinic acid level in the blood, in words","[9]; clinical treatment, normal dosage levels",rapidly decreases
same,Vasodilator effect,[9]; well known,vasodilator effect
same,"Plasma nicotinic acid level, in words","[8]; 10 mg/kg nicotinic acid, at 60 minutes",almost a trace amount or was not detectable
same,Plasma nicotinic acid level,"[8]; 360 min, oral, nicotinic acid 20 mg/kg, S-nicotinate 62.2 mg/kg",0 ± 0 µg/mL
same,Cmax at 0.5 h,"[8]; rat, plasma, po, 10 mg/kg",8300 ng/mL
same,Tmax,"[8]; rat, plasma, po, 10 mg/kg",30 min
same,concentration at 0.5 h,"[8]; rat, plasma, po, 20 mg/kg",42800 ± 1200 ng/mL
same,concentration at 1 h,"[8]; rat, plasma, po, 20 mg/kg",22200 ± 1600 ng/mL
same,concentration at 1.5 h,"[8]; rat, plasma, po, 20 mg/kg",6700 ± 1600 ng/mL
same,concentration at 2 h,"[8]; rat, plasma, po, 20 mg/kg",400 ± 300 ng/mL
same,"Plasma nicotinic acid at 120 minutes, in words","[8]; rats, 120 min after oral administration",essentially disappeared
same,Rebound effect in the plasma nicotinic acid level,"[8]; rats, compared with S-nicotinate",far larger rebound effect
pantothenolnicotinate,Effect on blood cholesterol level,[9]; Japanese published patent specification No. 40-18109,able to decrease the blood cholesterol level
